The record followed here is patent publication US8629148B2, “Substituted oxindole-derivatives and the use thereof for the treatment of vasopressin-dependent illnesses” (AbbVie Deutschland GmbH & Co. KG, priority 2007, dated 2014).

For assay [1], the target named is T1, human vasopressin V1b receptor (Homo sapiens, UniProt P47901).
T1 construct: expressed in transfected cells; host or cells: CHO-K1 (cell line hV1b_3H2_CHO), membranes
T1 sequence (P47901 1-424): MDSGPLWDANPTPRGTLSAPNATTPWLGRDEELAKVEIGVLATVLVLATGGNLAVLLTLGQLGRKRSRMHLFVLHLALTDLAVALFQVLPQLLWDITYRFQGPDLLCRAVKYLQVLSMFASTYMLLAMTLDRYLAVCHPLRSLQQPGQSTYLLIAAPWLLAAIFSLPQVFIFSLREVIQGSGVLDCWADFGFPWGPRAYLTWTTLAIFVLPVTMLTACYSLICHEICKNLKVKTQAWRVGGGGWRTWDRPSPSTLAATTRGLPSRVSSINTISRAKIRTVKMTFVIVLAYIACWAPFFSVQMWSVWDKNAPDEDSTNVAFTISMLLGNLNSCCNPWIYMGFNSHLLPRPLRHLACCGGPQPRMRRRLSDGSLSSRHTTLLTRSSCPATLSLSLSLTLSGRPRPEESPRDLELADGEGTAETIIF
Kind of assay: Vasopressin V1b receptor binding assay (3H-AVP displacement, CHO-K1 membranes). The method, then:
1. Vasopressin V1b Receptor Binding Assay:
The substance concentration was further diluted 1:5 in the assay mixture (2% DMSO in the mixture).
All determinations were carried out as triplicate determinations.

Assay [2] concerns the target human vasopressin V1a receptor (Homo sapiens, UniProt P37288). Kind of assay: Vasopressin V1a receptor binding assay (125I-AVP displacement, CHO-K1 membranes). As to conditions: selectivity quotient, human V1a vs human V1b.
The target of assay [3] is T2, recombinant human oxytocin receptors (Homo sapiens, UniProt P30559).
T2 construct: expressed in transfected cells; host or cells: HEK-293, transient expression; lysed and homogenized cells
T2 sequence (P30559 1-389): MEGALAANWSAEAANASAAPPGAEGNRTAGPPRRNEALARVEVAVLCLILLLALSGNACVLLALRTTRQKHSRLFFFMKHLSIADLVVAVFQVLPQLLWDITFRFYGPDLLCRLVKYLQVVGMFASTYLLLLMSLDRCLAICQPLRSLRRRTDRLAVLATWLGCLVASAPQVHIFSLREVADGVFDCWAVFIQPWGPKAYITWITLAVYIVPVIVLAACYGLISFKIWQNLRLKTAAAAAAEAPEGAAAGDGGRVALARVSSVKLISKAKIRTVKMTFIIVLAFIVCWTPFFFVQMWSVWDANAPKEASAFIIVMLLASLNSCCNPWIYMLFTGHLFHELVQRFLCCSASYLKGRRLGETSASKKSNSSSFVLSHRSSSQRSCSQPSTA
Kind of assay: Oxytocin receptor binding assay (3H-oxytocin, HEK-293 cells). Particulars: selectivity quotient, human OT vs human V1b. The procedure:
The residue was taken up in ice-cold lysis buffer (50 mM Tris-HCl, 10% glycerol, pH 7.4 and Roche complete protease inhibitor) and subjected to an osmotic shock at 4° C. for 20 minutes. The lyzed cells were then centrifuged at 750×g at 4° C. for 20 minutes, the residue was taken up in incubation buffer, and aliquots of 10^7 cells/ml were prepared. The aliquots were frozen at −80° C. until used.
On the day of the experiment, the cells were thawed, diluted with incubation buffer and homogenized using a Multipette Combitip (Eppendorf, Hamburg). […] Triplicate determinations were set up. Bound and free radioligand were separated by filtration under vacuum with Whatman GF/B glass fiber filters with the aid of a Skatron cell harvester 7000. The bound radioactivity was determined by liquid scintillation measurement in a Tricarb Beta counter, model 2000 or 2200CA (Packard).

pKi: −log10 of the molar value.

Chain of human vasopressin V1a receptor (P37288 whole entry): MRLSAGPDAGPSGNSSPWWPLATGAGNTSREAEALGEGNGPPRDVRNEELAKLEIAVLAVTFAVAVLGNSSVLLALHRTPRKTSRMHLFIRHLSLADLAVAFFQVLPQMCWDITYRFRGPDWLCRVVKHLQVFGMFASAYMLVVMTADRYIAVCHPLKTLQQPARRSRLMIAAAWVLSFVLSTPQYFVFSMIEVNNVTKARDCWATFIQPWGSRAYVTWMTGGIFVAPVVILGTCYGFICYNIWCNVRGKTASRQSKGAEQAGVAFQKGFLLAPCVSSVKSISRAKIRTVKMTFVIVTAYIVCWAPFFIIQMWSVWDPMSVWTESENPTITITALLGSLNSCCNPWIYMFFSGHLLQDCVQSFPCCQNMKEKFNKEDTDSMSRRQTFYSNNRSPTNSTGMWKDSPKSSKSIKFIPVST

`CCOc1ncccc1C1(Nc2ccc(C(=O)N3CCN(C)CC3)cc2)C(=O)N(S(=O)(=O)c2ccc(OC)cc2)c2ccc(I)cc21` (stereo not drawn) [Example 70, 3-(2-Ethoxypyridin-3-yl)-5-iodo-1-(4-methoxyphenylsulfonyl)-3-[4-(4-methylpiperazin-1-carbonyl)phenylamino]-1,3-dihydroindol-2-one] gave a pKi in assay [1] of 8.00 to 9.00. Further, in assay [2], the “Ki(h-V1a)/Ki(h-V1b)*” value was “++ (25-75)”. The “Ki(h-OT)/Ki(h-V1b)*” value in assay [3] was “+ (10-<25)”.

In assay [1], `CCOc1ncccc1C1(Nc2ccc(C(=O)N3CCN(C)CC3)cc2)C(=O)N(S(=O)(=O)c2ccc(OC)cc2OC)c2ccc(C#N)cc21` (stereo not drawn) [Example 73, 1-(2,4-Dimethoxyphenylsulfonyl)-3-(2-ethoxypyridin-3-yl)-3-[4-(4-methylpiperazin-1-carbonyl)phenylamino]-2-oxo-2,3-dihydro-1H-indole-5-carbonitrile] had a pKi of 7.00 to 8.00. In addition, the “Ki(h-V1a)/Ki(h-V1b)*” value in assay [2] is “+++ (>75)”. The “Ki(h-OT)/Ki(h-V1b)*” value in assay [3] is on record as “++ (25-75)”.

`CCOc1ncccc1C1(Nc2ccc(CN3CCN(C)CC3)cc2)C(=O)N(S(=O)(=O)c2ccc(OC)cc2OC)c2ccc(C#N)cc21` (stereo not drawn) [Example 74, 1-(2,4-Dimethoxyphenylsulfonyl)-3-(2-ethoxypyridin-3-yl)-3-[4-(4-methylpiperazin-1-ylmethyl)phenylamino]-2-oxo-2,3-dihydro-1H-indole-5-carbonitrile] showed a pKi in assay [1] of 8.00 to 9.00. Moreover, in assay [2], the “Ki(h-V1a)/Ki(h-V1b)*” value is listed as “+++ (>75)”. Besides, the “Ki(h-OT)/Ki(h-V1b)*” value in assay [3] was “+++ (>75)”.

Consider `CCOc1ncccc1C1(Nc2ccc(CN3CCN(C)CC3)cc2)C(=O)N(S(=O)(=O)c2ccc(OC)cc2)c2ccc(C#N)cc21` (stereo not drawn) [Example 75, 3-(2-Ethoxypyridin-3-yl)-1-(4-methoxyphenylsulfonyl)-3-[4-(4-methylpiperazin-1-ylmethyl)-phenylamino]-2-oxo-2,3-dihydro-1H-indole-5-carbonitrile], for which, in assay [1], the pKi is 7.00 to 8.00. Moreover, the “Ki(h-V1a)/Ki(h-V1b)*” value in assay [2] was “++ (25-75)”. In assay [3], the “Ki(h-OT)/Ki(h-V1b)*” value was “+++ (>75)”.

Turning to `COc1ccc(S(=O)(=O)N2C(=O)C(NCc3ccc(N4CCN(C)CC4)cc3)(c3cccnc3OCC(F)(F)F)c3cc(C#N)ccc32)cc1` (stereo not drawn) [Example 77, 1-(4-Methoxyphenylsulfonyl)-3-(2-(2,2,2-trifluoroethoxy)pyridin-3-yl)-3-[4-(4-methylpiperazin-1-yl)benzylamino]-2-oxo-2,3-dihydro-1H-indole-5-carbonitrile], the pKi in assay [1] is 8.00 to 9.00. Moreover, the “Ki(h-V1a)/Ki(h-V1b)*” value in assay [2] is “++ (25-75)”. The “Ki(h-OT)/Ki(h-V1b)*” value in assay [3] is “++ (25-75)”.

In assay [1], `CCN1CCN(c2ccc(NC3(c4cccnc4OCC(F)F)C(=O)N(S(=O)(=O)c4ccc(OC)cc4)c4ccc(C#N)cc43)cc2)CC1` (stereo not drawn) [Example 79, 3-[4-(4-Ethylpiperazin-1-yl)phenylamino]-1-(4-methoxyphenylsulfonyl)-3-(2-(2,2-difluoroethoxy)pyridin-3-yl)-2-oxo-2,3-dihydro-1H-indole-5-carbonitrile] gave a negative logarithm of the Ki (pKi) of 7.00 to 8.00. For the same compound, the “Ki(h-V1a)/Ki(h-V1b)*” value in assay [2] is given as “++ (25-75)”. Moreover, the “Ki(h-OT)/Ki(h-V1b)*” value in assay [3] is reported as “+++ (>75)”.

Usually pKi stands for the negative decadic logarithm of the Ki, by convention in mol/L.
